Measured values as given in patent publication US12239619B2, “Composition for inducing pili formation in bacterium of genus Bifidobacterium” (MORINAGA MILK INDUSTRY CO., LTD., priority 2019, dated 2025).

What was measured:
Format in all cases: cell-based
[1] = tested on: Bifidobacterium longum 1-1 strain; experiment: Pili induction in cultured Bifidobacterium longum, Western blotting with anti-FimA antibody; conditions: anaerobic, 37° C.; for pili formation by Western blotting: 10 μg/mL in GAM agar medium, 24 hours (Test Example 5)
Method: KUHIMM culture solution (900 mL) containing human feces used in Test Example 1 was fractionated in the order of MilliQ water, 50% methanol, and 100% methanol (250 mL of each) with an activated carbon column (resin volume: 45 mL). Of each fraction, 100 μL was collected in another container, dried under reduced pressure, and then redissolved in 50 μL of MilliQ water. Subsequently, the Bifidobacterium longum 1-1 strain was cultured in GAM medium, and 50 μL of the redissolved solution of the above fraction was added to 1 mL of the bacterial solution obtained by adjusting the above culture solution at OD600=0.1, and culture was performed at 37° C. for 24 hours. After culture, the cells were collected by centrifugation (4000×g, 5 minutes).
Bifidobacterium longum 1-1 strain was anaerobically cultured at 37° C. for 24 hours on GAM agar medium containing 10 μg/mL of aromatic amino acids or the amino acid metabolite produced by Clostridium sporogenes.

[2] = tested on: human intestinal epithelial cell line (Caco-2 or HT29-MTX); experiment: Adhesion of cultured Bifidobacterium longum to human intestinal epithelial cell line; conditions: B. longum cultured with 10 μg/mL PPA, 15 hours, 2 hours
Method: Furthermore, the adhesion of the cultured cells to the human intestinal epithelial cell line (Caco-2 or HT29-MTX) was evaluated. Specifically, the Bifidobacterium longum 1-1 strain was cultured on GAM medium containing 10 μg/mL of PPA at 37° C. for 15 hours. The cells were centrifuged (4000×g, 1 min, 4° C.), collected, and suspended in Dulbecco's modified Eagle's medium (DMEM) at OD600=0.5. 0.2 mL of this bacterial solution was added to a chamber slide glass in which HT29-MTX or Caac-2 cells had been cultured in a single layer, and was allowed to stand at 37° C. for 2 hours. After washing with DMEM medium, Bifidobacterium longum adhered with 4% paraformaldehyde was fixed and stained with crystal violet. The number of bacteria per well was counted under a microscope.

[3] = tested on: Bifidobacterium longum 1-1 strain; experiment: Scanning electron microscope observation of pili in cultured Bifidobacterium longum; conditions: 10 μg/mL in GAM agar medium, anaerobic, 37° C., 24 hours

| Structure (SMILES) | pili formation by Western blotting [1] | concentration in the medium that clearly induced the pili formation ([1]; GAM agar medium, 24 hours) | pili polymerization ([1]; GAM agar medium, final concentration 0.01 to 80 μg/mL, 24 hours) | adhesion to human intestinal epithelial cell line, presence versus absence [2] | pili observed with scanning electron microscope [3] |
| --- | --- | --- | --- | --- | --- |
| O=C(O)CCc1ccccc1 [3-phenylpropionic acid] | pili formation was observed | more than 0.1 μg/mL | induced pili polymerization dose-dependently | significantly larger | large fiber-shaped pili were observed |
| O=C(O)CCc1ccc(O)cc1 [3-(4-hydroxyphenyl)propionic acid] | pili formation was observed although less significant than in the former case |  |  |  |  |
